Source: patent US20250073358A1, “AROMATIC VINYL COMPOUND, METAL COMPLEX THEREOF, AND PREPARATION METHOD THEREFOR AND USE THEREOF” (SHANGHAI MAXINOVEL PHARMACEUTICALS CO., LTD., priority 2021, published 2025)

What was measured:
[1] = tested on: MC38-PDL1 tumor (MC-38-hPD-L1 cells); experiment: Tumor targeting study in Micro-PET/CT scanning, bilateral tumor model (Effect Embodiment 4), left tumor; type: in vivo, C57BL/6J mice; conditions: Micro-PET/CT imaging, bilateral tumor mice
Procedure: • Tumor targeting study of compound 80 in Micro-PET/CT scanning • Experimental animal information: C57BL/6J mice, SPF grade; 15-21 g; • Construction of Bilateral Tumor Model Mice: • Cell Culture
(§1) Human-derived PD-L1 gene knock-in MC-38 cells (MC-38-hPD-L1 cells) were adherently cultured in vitro, and the culture conditions were DMEM medium plus 10% heat-inactivated fetal bovine serum and hygromycinB (final concentration was […]), and the cells were cultured at 37° C. with 5% CO2. Subculture of 2-3 times a week. When the cells were in the exponential growth phase, the cells were harvested, counted, and the left side of the mice was inoculated subcutaneously.
(§2) Mouse-derived MC-38 cells were adherently cultured in vitro, and the culture conditions were DMEM medium plus 10% heat-inactivated fetal bovine serum, and the cells were cultured at 37° C. with 5% CO2. Subculture of 2-3 times a week. When the cells were in the exponential growth phase, the cells were collected, counted, and the right side of the mice was inoculated subcutaneously.
(§3) 100 μL of 1×10^6 MC-38-hPD-L1 cell suspension was inoculated subcutaneously on the left dorsal side of C57BL/6J mice. The same mice were subcutaneously inoculated with 100 μL of 1×10^6 MC-38 cell suspension on the right dorsal side on the second day. After inoculation, the mice were fed normally, and after a certain number of days, tumor-bearing mice with the volume of bilateral transplanted tumor in the range of 150 mm^3−350 mm^3 were selected for test.
(§4) After quality control, compound 80 was diluted with 10% ethanol in physiological saline, and the drug was extracted and injected into each animal through tail vein. The administration volume was 100 μL/animal, and the administration dose was 100-200 μCi/animal. The study of Micro-PET/CT imaging was performed at 0.5 h, 1.5 h, 2.5 h, 3.5 h after injection of compound 80.

PD-1/PD-L1 = PD-1/PD-L1 (Homo sapiens (Human), UniProt Q9NZQ7); experiment: Homogenouse Time-Resolved Fluorescence (HTRF) binding assay, PD-1/PD-L1
Procedure: Homogenouse Time-Resolved Fluorescence (HTRF) binding assay was used to detect the binding ability of the compound of the present disclosure to PD-1/PD-L1.
The purchased kit (CisBio, #64CUS000C-1) contains reagents required for experiments such as PD-1, PD-L1, anti-tag1-Eu, Anti-tag2-XL665, Dilute Buffer, and Detection Buffer.
• 1. The compound was configured with 100% DMSO into 10 concentrations with a concentration gradient of 3 times. • 2. The DMSO solution of the compound was added to Dilute Buffer solution, and the mixture was mixed well and transferred to a 96-well plate. • 3. PD-L1 was diluted with Dilute Buffer solution and then added to the above 96-well plate. • 4. PD-1 was diluted with Dilute Buffer solution and then added to the above 96-well plate, and incubated at room temperature for 30 minutes. • 5. One part of anti-tag1-Eu and one part of Anti-tag2-XL665 were added to Detection Buffer solution, and the mixture was mixed well and transferred to the above 96-well plate. • 6. The mixture in the 96-well plate was incubated at room temperature for 1 to 24 hours. • 7. The HTRF values were read with Envision.

[2] = tested on: MC38-PDL1 tumor (MC-38-hPD-L1 cells); experiment: Tumor targeting study in Micro-PET/CT scanning, bilateral tumor model (Effect Embodiment 3), left tumor; type: in vivo, C57BL/6J mice; conditions: Micro-PET/CT imaging, bilateral tumor mice
Text: Tumor targeting study of compound 79 in Micro-PET/CT scanning 1. Experimental animal information: C57BL/6J mice, SPF grade; 15-21 g; model mouse construction: bilateral tumor • Construction of bilateral tumor model mice • Cell culture
as §1, §2, §3
as §4, with “79” for “80”, “79.” for “80.”

tumor = experiment: Inhibitory effect on tumor in tumor-bearing mice; type: in vivo, C57/BL6 mice; conditions: tail vein injection, 45 MBq per mouse, compared with the control group (PBS)
Text: • 1. Inhibitory effect of compound 78 on tumor • 1.1 Experimental animal information: tumor-bearing C57/BL6 mice; SPF grade; weight range: 17-20 g; Shanghai Qi'up Biomedical Technology Co., Ltd. • 1.2 Experimental process
Ten tumor-bearing mice with tumor volumes of 10-100 mm^3 were systematically and randomly divided into 2 groups according to tumor size, with 5 mice in each group, corresponding to PBS and compound 78 respectively. After anesthesia with isoflurane, tumor-bearing mice were injected into the tail vein with compound 78 with 45 MBq (approximately 1.2 mCi) per mouse and a volume of 0.2 mL. After administration, the tumor size and weight of the animals were measured periodically, and the tumor growth curve was drawn to understand the inhibitory effect of the drug on tumor.

Sequence of PD-1/PD-L1 (Q9NZQ7 19-238): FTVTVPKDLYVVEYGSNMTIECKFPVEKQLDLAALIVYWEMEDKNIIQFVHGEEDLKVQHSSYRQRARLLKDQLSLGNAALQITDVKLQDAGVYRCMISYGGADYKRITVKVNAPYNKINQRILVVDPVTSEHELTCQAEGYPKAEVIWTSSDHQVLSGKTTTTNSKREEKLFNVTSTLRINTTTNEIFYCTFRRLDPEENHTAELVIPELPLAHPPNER

uptake value of left tumor (MC38-PDL1) compared with right tumor (MC38) [1] | uptake value of left tumor (MC38-PDL1) compared with right tumor (MC38) [2] | Compound | IC50 (PD-1/PD-L1) [nM] | inhibition of tumor growth (tumor)
significantly higher | – | Cc1c(/C=C/c2cc(OCCNC(=O)C3CCN(C(=O)CN4CCN(CC(=O)O)CCN(CC(=O)O)CCN(CC(=O)O)CC4)CC3)c(CN3CCCC[C@H]3C(=O)O)cc2C(F)(F)F)cccc1-c1ccccc1 [Compound 36] | 0.521 | –
significantly higher | – | Cc1c(/C=C/c2cc(OCCNC(=O)C3CCC(CNC(=O)CN4CCN(CC(=O)O)CCN(CC(=O)O)CCN(CC(=O)O)CC4)CC3)c(CN3CCCC[C@H]3C(=O)O)cc2C(F)(F)F)cccc1-c1ccccc1 (stereo partly shown) [Compound 35] | 0.766 | –
– | significantly higher | N#Cc1c(-c2ccccc2)ccnc1/C=C/c1cc(OCCCCCN2CCN(CC(=O)[O-])CCN(CC(=O)[O-])CC2)c(CN2CCCC[C@H]2C(=O)O)cc1C(F)(F)F.[Al+3].[F-] [Compound 58] | – | –
– | significantly higher | N#Cc1c(-c2ccccc2)ccnc1/C=C/c1cc(OCC2CCN(C(=O)CN3CCN(CC(=O)[O-])CCN(CC(=O)[O-])CC3)CC2)c(CN2CCCC[C@H]2C(=O)O)cc1C(F)(F)F.[Al+3].[F-] [Compound 60] | – | –
significantly higher | – | Cc1c(/C=C/c2cc(OCCCCNC(=O)CN3CCN(CC(=O)O)CCN(CC(=O)O)CCN(CC(=O)O)CC3)c(CN3CCCC[C@H]3C(=O)O)cc2C(F)(F)F)cccc1-c1ccccc1 [Compound 8] | 0.522 | –
– | significantly higher | Cc1c(/C=C/c2cc(OCCCNC(=O)CN3CCN(CC(=O)O)CCN(CC(=O)O)CC3)c(CN3CCCC[C@H]3C(=O)O)cc2C(F)(F)F)cccc1-c1ccccc1 [Compound 64] | 0.7 | –
– | – | Cc1cc(CN2CCCC[C@H]2C(=O)O)c(OCCOC(=O)CN2CCN(CC(=O)[O-])CCN(CC(=O)[O-])CCN(CC(=O)[O-])CC2)cc1/C=C/c1cccc(-c2ccccc2)c1C#N.[Lu+3] [Compound 15] | 5.33 | very good therapeutic effects on inhibiting tumor growth
– | – | Cc1ccc(CCCC(=O)NCCCC[C@H](NC(=O)CN2CCN(CC(=O)O)CCN(CC(=O)O)CCN(CC(=O)O)CC2)C(=O)NCCCCCCOc2cc(/C=C/c3cccc(-c4ccccc4)c3C)c(C(F)(F)F)cc2CN2CCCC[C@H]2C(=O)O)cc1 [Compound 26] | 33.2 | very good therapeutic effects on inhibiting tumor growth
– | – | Cc1c(/C=C/c2cc(OCCCCCCNC(=O)CN3CCN(CC(=O)[O-])CCN(CC(=O)[O-])CCN(CC(=O)[O-])CC3)c(CN3CCCC[C@H]3C(=O)O)cc2C(F)(F)F)cccc1-c1ccccc1.[Lu+3] [Compound 24] | 0.785 | very good therapeutic effects on inhibiting tumor growth
significantly higher | – | Cc1c(/C=C/c2cc(OCCOCCN3CCN(CC(=O)O)CCN(CC(=O)O)CCN(CC(=O)O)CC3)c(CN3CCCC[C@H]3C(=O)O)cc2C(F)(F)F)cccc1-c1ccccc1 [Compound 7] | 0.969 | –
significantly higher | – | Cc1c(/C=C/c2cc(OCCOCCN3CCN(CC(=O)[O-])CCN(CC(=O)[O-])CCN(CC(=O)[O-])CC3)c(CN3CCCC[C@H]3C(=O)O)cc2C(F)(F)F)cccc1-c1ccccc1.[68Ga+3] [Compound 75] | – | –

Compound | uptake value of left tumor (MC38-PDL1) compared with right tumor (MC38) [1] | uptake value of left tumor (MC38-PDL1) compared with right tumor (MC38) [2] | IC50 (PD-1/PD-L1) [nM] | inhibition of tumor growth (tumor)
Cc1c(/C=C/c2cc(OCCCCNC(=O)CN3CCN(CC(=O)[O-])CCN(CC(=O)[O-])CC3)c(CN3CCCC[C@H]3C(=O)O)cc2C(F)(F)F)cccc1-c1ccccc1.[Al+3].[F-] [Compound 62] | – | significantly higher | 0.529 | –
Cc1ccc(CCCC(=O)NCCCC[C@H](NC(=O)CN2CCN(CC(=O)O)CCN(CC(=O)O)CCN(CC(=O)O)CC2)C(=O)NCCCCCCOc2cc(/C=C/c3cccc(-c4ccccc4)c3C)c(C(F)(F)F)cc2CN2CCCC[C@H]2C(=O)O)cc1 [Compound 27] | significantly higher | – | 13.6 | –
Cc1c(/C=C/c2cc(OCCCCCCNC(=O)CN3CCN(CC(=O)[O-])CCN(CC(=O)[O-])CCN(CC(=O)[O-])CC3)c(CN3CCCC[C@H]3C(=O)O)cc2C(F)(F)F)cccc1-c1ccccc1.[Ga+3] [Compound 28] | significantly higher | – | 0.562 | –
COc1cc(C(=O)Nc2cccc(-c3cccc(/C=C/c4cc(OCCOCCN5CCN6CCN(CC5)CC(=O)[O][Al]([F])[O]C(=O)C6)c(CN5CCCC[C@H]5C(=O)O)cc4C(F)(F)F)c3C)c2C)ncc1CN1CCCC[C@H]1C(=O)O [Compound 82] | – | significantly higher | – | –
Cc1c(/C=C/c2cc(OCC3CCN(C(=O)CN4CCN(CC(=O)O)CCN(CC(=O)O)CCN(CC(=O)O)CC4)CC3)c(CN3CCCC[C@H]3C(=O)O)cc2C(F)(F)F)cccc1-c1ccccc1 [Compound 37] | significantly higher | – | 0.729 | –
